Read-outs that look alike come from different tables or passages of the source. Starred links: 1 amine or outer side, 2 acyl side, 3 side chain; linkers in the order of their positions; H or OH if unused. Non-standard residues stand in square brackets, D forms with d. Residues, ends and D or L forms follow the SMILES beside them. Groups on a side chain read outwards from the residue. *: point of attachment. C20 diacid = O=C(O)CCCCCCCCCCCCCCCCCCC(=O)*; γGlu = O=C(O)[C@H](CCC(=O)[*:2])N[*:1]; NMeI = CC[C@H](C)[C@H](NC)C(=O)O; Nle = CCCC[C@H](N)C(=O)O; AEEA = NCCOCCOCC(=O)O; Aib = CC(C)(N)C(=O)O
Tests used:
hCRHR2 = biological target: T1, hCRHR2 (Homo sapiens, UniProt Q13324); experiment: HTRF cAMP assay, determination of hCRHR2 potency (peptide libraries 5 conc., purified peptides 11 conc.); format: cell-based
T1 sequence (Q13324 1-411): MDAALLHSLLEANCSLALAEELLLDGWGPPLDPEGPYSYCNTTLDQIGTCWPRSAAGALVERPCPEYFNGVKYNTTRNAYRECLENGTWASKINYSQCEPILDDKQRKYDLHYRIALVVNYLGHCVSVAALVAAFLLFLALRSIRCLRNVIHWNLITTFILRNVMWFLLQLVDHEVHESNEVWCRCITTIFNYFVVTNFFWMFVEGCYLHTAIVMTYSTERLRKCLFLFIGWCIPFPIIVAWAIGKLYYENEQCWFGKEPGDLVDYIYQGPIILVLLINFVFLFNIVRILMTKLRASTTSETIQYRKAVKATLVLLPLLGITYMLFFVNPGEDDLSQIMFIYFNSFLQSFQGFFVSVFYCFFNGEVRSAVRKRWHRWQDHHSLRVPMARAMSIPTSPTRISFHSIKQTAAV
Excerpt: HTRF (CisBio) cAMP assay: The assay technology has thoroughly been described in the CisBio HTRF cAMP assay Kit manual (# 62AM4PEC). Briefly, time resolved fluorescence technic was applied to measure cAMP. This technic is based on a competitive immunoassay using cryptate-labelled anti-cAMP antibody and d2-labeled cAMP. In the absence of cellular cAMP, the anti-cAMP cryptate conjugate may get into proximity to cAMP-d2 conjugate and energy (FRET) can be transferred from cryptate to d2.
CHO-K1 cells stably expressing the human corticotropin-releasing hormone receptor 2 (Eurofins/DiscoverX, Cat #95-0048C2 hCRHR2 stable monoclonal cell lines) were used as cells in suspension, brought to life from frozen cell stocks immediately before assay performance.
Concentration-response evaluation of compounds was performed with 5 concentrations of agonist peptides and EC50 values were calculated by nonlinear regression using sigmoid concentration-response with variable slope.
Concentration-response evaluation of compounds was performed with 11 concentrations of agonist peptides and EC50 values were calculated by nonlinear regression using sigmoid concentration-response with variable slope.

hCRHR1 = biological target: T2, hCRHR1 (Homo sapiens, UniProt P34998); experiment: HTRF cAMP assay, determination of hCRHR1 potency (peptide libraries 5 conc., purified peptides 11 conc.); format: cell-based
T2 sequence (P34998 24-415): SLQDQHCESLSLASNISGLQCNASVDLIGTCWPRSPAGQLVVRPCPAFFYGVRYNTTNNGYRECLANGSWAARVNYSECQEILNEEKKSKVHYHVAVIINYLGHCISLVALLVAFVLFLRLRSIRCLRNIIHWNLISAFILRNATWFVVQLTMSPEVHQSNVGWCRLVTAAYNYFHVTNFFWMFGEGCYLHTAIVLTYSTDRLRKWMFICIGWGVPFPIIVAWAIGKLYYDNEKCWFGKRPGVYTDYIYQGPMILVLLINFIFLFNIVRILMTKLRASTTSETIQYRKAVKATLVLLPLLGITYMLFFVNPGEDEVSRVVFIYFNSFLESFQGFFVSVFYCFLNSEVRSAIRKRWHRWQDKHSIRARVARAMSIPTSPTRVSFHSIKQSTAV
Excerpt: HTRF (CisBio) cAMP assay: The assay technology has thoroughly been described in the CisBio HTRF cAMP assay Kit manual (# 62AM4PEC). Briefly, time resolved fluorescence technic was applied to measure cAMP. This technic is based on a competitive immunoassay using cryptate-labelled anti-cAMP antibody and d2-labeled cAMP. In the absence of cellular cAMP, the anti-cAMP cryptate conjugate may get into proximity to cAMP-d2 conjugate and energy (FRET) can be transferred from cryptate to d2. CHO-K1 cells stably expressing the human corticotropin-releasing hormone receptor 1 (Eurofins/DiscoverX Cat #95-0047C2 hCRHR1 stable monoclonal cell lines) were used as cells in suspension, brought to life from frozen cell stocks immediately before assay performance. […] Concentration-response evaluation of compounds was performed with 5 concentrations of agonist peptides and EC50 values were calculated by nonlinear regression using sigmoid concentration-response with variable slope. Concentration-response evaluation of compounds was performed with 11 concentrations of agonist peptides and EC50 values were calculated by nonlinear regression using sigmoid concentration-response with variable slope.

[1] = library peptides, matched molecular pairs L vs Nle in position X^38, read-out: Potency hCRHR2 pEC50 (converted)
[2] = library peptides, matched molecular pairs L vs Nle in position X^38, read-out: Potency hCRHR1 pEC50 (converted)

EC50 (hCRHR2; [1])	EC50 (hCRHR1; [2])	Compound	also measured
2 nM	158 µM	CC[C@H](C)[C@H](N)C(=O)N[C@H](C(=O)N[C@@H](CC(C)C)C(=O)N[C@@H](CO)C(=O)N[C@@H](CC(C)C)C(=O)N[C@@H](CC(=O)O)C(=O)N[C@H](C(=O)N1CCC[C@H]1C(=O)N[C@H](C(=O)NCC(=O)N[C@@H](CC(C)C)C(=O)N[C@@H](CC(C)C)C(=O)N[C@@H](CCC(N)=O)C(=O)N[C@H](C(=O)N[C@@H](CC(C)C)C(=O)N[C@@H](CC(C)C)C(=O)N[C@@H](CCC(=O)O)C(=O)N[C@@H](CCC(N)=O)C(=O)N[C@@H](C)C(=O)N[C@@H](CCCNC(=N)N)C(=O)N[C@@H](C)C(=O)N[C@@H](CCCNC(=N)N)C(=O)N[C@@H](C)C(=O)N[C@@H](CC(C)C)C(=O)N[C@@H](CCCNC(=N)N)C(=O)N[C@@H](CCC(=O)O)C(=O)N[C@@H](CCC(=O)O)C(=O)N[C@@H](C)C(=O)N[C@@H](CCCCNC(=O)COCCOCCNC(=O)COCCOCCNC(=O)CC[C@H](NC(=O)CC[C@H](NC(=O)CCCCCCCCCCCCCCCCCCC(=O)O)C(=O)O)C(=O)O)C(=O)N[C@H](C(=O)N[C@@H](CC(N)=O)C(=O)N[C@@H](C)C(=O)N[C@@H](CCC(=O)O)C(=O)N[C@H](C(=O)N[C@@H](CC(C)C)C(=O)N[C@@H](C)C(=O)N[C@@H](CCC(=O)O)C(=O)N[C@H](C(N)=O)C(C)C)[C@@H](C)CC)[C@@H](C)O)[C@@H](C)CC)[C@@H](C)CC)C(C)C)C(C)C [compound 50] (H-IVLSLDVPIGLLQILLEQARARALREEAK([AEEA-AEEA-γGlu-γGlu-C20 diacid])TNAEILAEV-NH2)	–
–	–	CCCC[C@H](NC(=O)[C@@H](NC(=O)[C@H](CCC(=O)O)NC(=O)C(C)(C)NC(=O)[C@H](CC(N)=O)NC(=O)[C@@H](NC(=O)[C@H](CCCCNC(=O)COCCOCCNC(=O)COCCOCCNC(=O)CC[C@H](NC(=O)CC[C@H](NC(=O)CCCCCCCCCCCCCCCCCCC(=O)O)C(=O)O)C(=O)O)NC(=O)[C@H](C)NC(=O)[C@H](CCC(N)=O)NC(=O)[C@H](CCC(=O)O)NC(=O)[C@H](CCCNC(=N)N)NC(=O)[C@H](C)NC(=O)[C@H](C)NC(=O)[C@H](CCCNC(=N)N)NC(=O)[C@H](C)NC(=O)[C@H](CCCNC(=N)N)NC(=O)[C@H](C)NC(=O)[C@H](CCC(N)=O)NC(=O)[C@H](CC(C)C)NC(=O)[C@H](CC(C)C)NC(=O)[C@H](CC(C)C)NC(=O)[C@@H](NC(=O)[C@H](CCC(N)=O)NC(=O)[C@H](CC(C)C)NC(=O)[C@H](CC(C)C)NC(=O)CNC(=O)[C@@H](NC(=O)[C@@H]1CCCN1C(=O)[C@@H](NC(=O)[C@H](CC(=O)O)NC(=O)[C@H](CC(C)C)NC(=O)[C@H](CO)NC(=O)[C@H](CC(C)C)NC(=O)[C@@H](NC(=O)[C@@H](NC)[C@@H](C)CC)C(C)C)C(C)C)[C@@H](C)CC)[C@@H](C)CC)[C@@H](C)O)[C@@H](C)CC)C(=O)N[C@@H](C)C(=O)N[C@@H](CCC(=O)O)C(=O)N[C@H](C(N)=O)C(C)C [compound 229] (H-[NMeI]VLSLDVPIGLLQILLLQARARAAREQAK([AEEA-AEEA-γGlu-γGlu-C20 diacid])TN[Aib]EI[Nle]AEV-NH2)	EC50 (hCRHR2; Table 4, library peptides having X^38 = Nle, read-out: hCRHR2 pEC50 (converted)): 0.0794 nM; EC50 (hCRHR1; Table 4, library peptides having X^38 = Nle, read-out: hCRHR1 pEC50 (converted)): 6.31 µM
–	–	CC[C@H](C)[C@H](N)C(=O)N[C@H](C(=O)N[C@@H](CC(C)C)C(=O)N[C@@H](CO)C(=O)N[C@@H](CC(C)C)C(=O)N[C@@H](CC(=O)O)C(=O)N[C@H](C(=O)N1CCC[C@H]1C(=O)N[C@H](C(=O)NCC(=O)N[C@@H](CC(C)C)C(=O)N[C@@H](CC(C)C)C(=O)N[C@@H](CCC(N)=O)C(=O)N[C@H](C(=O)N[C@@H](CC(C)C)C(=O)N[C@@H](CC(C)C)C(=O)N[C@@H](CCC(=O)O)C(=O)N[C@@H](CCC(N)=O)C(=O)N[C@@H](C)C(=O)N[C@@H](CCCNC(=N)N)C(=O)N[C@@H](C)C(=O)N[C@@H](CCC(=O)O)C(=O)N[C@@H](C)C(=O)N[C@@H](C)C(=O)N[C@@H](CCCNC(=N)N)C(=O)N[C@@H](CCC(=O)O)C(=O)N[C@@H](CCC(N)=O)C(=O)N[C@@H](C)C(=O)N[C@@H](CCCCNC(=O)COCCOCCNC(=O)COCCOCCNC(=O)CC[C@H](NC(=O)CC[C@H](NC(=O)CCCCCCCCCCCCCCCCCCC(=O)O)C(=O)O)C(=O)O)C(=O)N[C@H](C(=O)N[C@@H](CC(N)=O)C(=O)N[C@@H](C)C(=O)N[C@@H](CCC(=O)O)C(=O)N[C@H](C(=O)N[C@@H](CC(C)C)C(=O)N[C@@H](C)C(=O)N[C@@H](CCC(=O)O)C(=O)N[C@H](C(N)=O)[C@@H](C)CC)[C@@H](C)CC)[C@@H](C)O)[C@@H](C)CC)[C@@H](C)CC)C(C)C)C(C)C [SEQ ID NO: 23] (H-IVLSLDVPIGLLQILLEQARAEAAREQAK([AEEA-AEEA-γGlu-γGlu-C20 diacid])TNAEILAEI-NH2)	EC50 (hCRHR2; Table 3, matched molecular pairs X^38 L vs Nle, peptide library of Example 4, read-out: hCRHR2 pEC50 (converted)): 0.501 nM; EC50 (hCRHR1; Table 3, matched molecular pairs X^38 L vs Nle, peptide library of Example 4, read-out: hCRHR1 pEC50 (converted)): 39.8 µM
0.398 nM	20 µM	CC[C@H](C)[C@H](N)C(=O)N[C@H](C(=O)N[C@@H](CC(C)C)C(=O)N[C@@H](CO)C(=O)N[C@@H](CC(C)C)C(=O)N[C@@H](CC(=O)O)C(=O)N[C@H](C(=O)N1CCC[C@H]1C(=O)N[C@H](C(=O)NCC(=O)N[C@@H](CC(C)C)C(=O)N[C@@H](CC(C)C)C(=O)N[C@@H](CCC(N)=O)C(=O)N[C@H](C(=O)N[C@@H](CC(C)C)C(=O)N[C@@H](CC(C)C)C(=O)N[C@@H](CCC(=O)O)C(=O)N[C@@H](CCC(N)=O)C(=O)N[C@@H](C)C(=O)N[C@@H](CCCNC(=N)N)C(=O)N[C@@H](C)C(=O)N[C@@H](CCC(N)=O)C(=O)N[C@@H](C)C(=O)N[C@@H](C)C(=O)N[C@@H](CCCNC(=N)N)C(=O)N[C@@H](CCC(=O)O)C(=O)N[C@@H](CCCNC(=N)N)C(=O)N[C@@H](C)C(=O)N[C@@H](CCCCNC(=O)COCCOCCNC(=O)COCCOCCNC(=O)CC[C@H](NC(=O)CC[C@H](NC(=O)CCCCCCCCCCCCCCCCCCC(=O)O)C(=O)O)C(=O)O)C(=O)N[C@H](C(=O)N[C@@H](CC(N)=O)C(=O)N[C@@H](C)C(=O)N[C@@H](CCC(=O)O)C(=O)N[C@H](C(=O)N[C@@H](CC(C)C)C(=O)N[C@@H](C)C(=O)N[C@@H](CCC(=O)O)C(=O)N[C@H](C(N)=O)C(C)C)[C@@H](C)CC)[C@@H](C)O)[C@@H](C)CC)[C@@H](C)CC)C(C)C)C(C)C [compound 48] (H-IVLSLDVPIGLLQILLEQARAQAARERAK([AEEA-AEEA-γGlu-γGlu-C20 diacid])TNAEILAEV-NH2)	–

— patent publication EP4810052A2, “HCRHR2 SELECTIVE POLYPEPTIDES” (Gubra A/S, priority 2023, dated 2026)
